Values after ≈ are worked out from the molar mass of the structure shown.
Columns and labels:
Serratia marcescens [1] = assay: microbe, parasite or virus in culture; assay type: functional; settings: ATCC 13880
Description: (§1) Antimicrobial activity against Serratia marcescens ATCC 13880 by broth dilution method

Serratia marcescens [2] = assay: Antimicrobial activity against cetylpyridinium chloride-resistant Serratia marcescens 01 by broth dilution method; assay type: functional
Serratia marcescens [3] = assay: Antimicrobial activity against cetylpyridinium chloride-sensitive Serratia marcescens 71 by broth dilution method; assay type: functional
Serratia marcescens [4] = assay: Antimicrobial activity against cetylpyridinium chloride-sensitive Serratia marcescens 79 by broth dilution method; assay type: functional
Serratia marcescens [5] = assay: Antimicrobial activity against Serratia marcescens ATCC 13880 harboring plasmid STV29 by broth dilution method; assay type: functional
Serratia marcescens [6] = assay: Antimicrobial activity against cetylpyridinium chloride-resistant Serratia marcescens 01 harboring plasmid STV29 by broth dilution method; assay type: functional
Serratia marcescens [7] = assay: Antimicrobial activity against cetylpyridinium chloride-sensitive Serratia marcescens 71 harboring plasmid STV29 by broth dilution method; assay type: functional
Serratia marcescens [8] = assay: Antimicrobial activity against cetylpyridinium chloride-sensitive Serratia marcescens 71 harboring plasmid STV29 expressing hasF gene by broth dilution method; assay type: functional
Serratia marcescens [9] = assay: Antimicrobial activity against cetylpyridinium chloride-sensitive Serratia marcescens 79 harboring plasmid STV29 by broth dilution method; assay type: functional
Serratia marcescens [10] = assay: Antimicrobial activity against cetylpyridinium chloride-sensitive Serratia marcescens 79 harboring plasmid STV29 expressing hasF gene by broth dilution method; assay type: functional
Serratia marcescens [11] = assay: Antimicrobial activity against cetylpyridinium chloride-resistant Serratia marcescens HMS011 by broth dilution method; assay type: functional
Serratia marcescens [12] = assay: Antimicrobial activity against cetylpyridinium chloride-resistant Serratia marcescens HMS011 harboring plasmid STV28 expressing sdeB gene by broth dilution method; assay type: functional
Serratia marcescens [13] = assay: Antimicrobial activity against cetylpyridinium chloride-resistant Serratia marcescens 011 by broth dilution method; assay type: functional
Serratia marcescens [14] = assay: Antimicrobial activity against cetylpyridinium chloride-resistant Serratia marcescens 011 harboring plasmid STV28 expressing sdeB gene by broth dilution method; assay type: functional
Serratia marcescens [15] = assay: Cellular uptake at Serratia marcescens ATCC 13880 at 50 ug/ml after 60 mins by spectrofluorometry; assay type: ADME, organism-based; settings: in vivo, 1 h
Serratia marcescens [16] = assay: Cellular uptake at cetylpyridinium chloride-resistant Serratia marcescens 01 at 50 ug/ml after 60 mins by spectrofluorometry; assay type: ADME, organism-based; settings: in vivo, 1 h
Serratia marcescens [17] = assay: Cellular uptake at Serratia marcescens ATCC 13880 at 50 ug/ml after 60 mins by spectrofluorometry in presence of […] proteon conductor CCCP; assay type: ADME, organism-based; settings: in vivo, 1 h
Serratia marcescens [18] = assay: Cellular uptake at cetylpyridinium chloride-resistant Serratia marcescens 01 at 50 ug/ml after 60 mins by spectrofluorometry in presence of […] proteon conductor CCCP; assay type: ADME, organism-based; settings: in vivo, 1 h
Serratia marcescens [19] = settings: ATCC 13880
Description: as §1

Serratia marcescens [20] = settings: 01
Serratia marcescens [21] = settings: 71
Serratia marcescens [22] = settings: 79

Molecule	MIC (Serratia marcescens [1])	MIC (Serratia marcescens [2])	MIC (Serratia marcescens [3])	MIC (Serratia marcescens [4])	MIC (Serratia marcescens [5])	MIC (Serratia marcescens [6])	MIC (Serratia marcescens [7])	MIC (Serratia marcescens [8])	MIC (Serratia marcescens [9])	MIC (Serratia marcescens [10])	MIC (Serratia marcescens [11])	MIC (Serratia marcescens [12])	MIC (Serratia marcescens [13])	MIC (Serratia marcescens [14])	other results
CCn1cc(C(=O)O)c(=O)c2cc(F)c(N3CCNCC3)cc21 [NORFLOXACIN]	0.2 µg/mL (≈ 0.626 µM)	3.13 µg/mL (≈ 9.8 µM)	0.05 µg/mL (≈ 0.157 µM)	0.05 µg/mL (≈ 0.157 µM)	0.2 µg/mL (≈ 0.626 µM)	3.13 µg/mL (≈ 9.8 µM)	0.05 µg/mL (≈ 0.157 µM)	3.13 µg/mL (≈ 9.8 µM)	0.05 µg/mL (≈ 0.157 µM)	3.13 µg/mL (≈ 9.8 µM)	0.2 µg/mL (≈ 0.626 µM)	0.2 µg/mL (≈ 0.626 µM)	0.78 µg/mL (≈ 2.44 µM)	3.13 µg/mL (≈ 9.8 µM)	Drug uptake (Serratia marcescens [15]): 60 a.u.; Drug uptake (Serratia marcescens [16]): 10 a.u.; Drug uptake (Serratia marcescens [17]): 250 a.u.; Drug uptake (Serratia marcescens [18]): 250 a.u.
CCn1cc(C(=O)O)c(=O)c2cc(F)c(N3CCNC(C)C3)c(F)c21 (stereo not given) [LOMEFLOXACIN]	0.2 µg/mL (≈ 0.569 µM)	1.56 µg/mL (≈ 4.44 µM)	0.05 µg/mL (≈ 0.142 µM)	0.05 µg/mL (≈ 0.142 µM)	0.2 µg/mL (≈ 0.569 µM)	1.56 µg/mL (≈ 4.44 µM)	0.05 µg/mL (≈ 0.142 µM)	1.56 µg/mL (≈ 4.44 µM)	0.05 µg/mL (≈ 0.142 µM)	1.56 µg/mL (≈ 4.44 µM)	0.2 µg/mL (≈ 0.569 µM)	0.2 µg/mL (≈ 0.569 µM)	0.78 µg/mL (≈ 2.22 µM)	1.56 µg/mL (≈ 4.44 µM)	
CCn1cc(C(=O)O)c(=O)c2ccc(C)nc21 [NALIDIXIC ACID]	12.5 µg/mL (≈ 53.8 µM)	12.5 µg/mL (≈ 53.8 µM)	12.5 µg/mL (≈ 53.8 µM)	12.5 µg/mL (≈ 53.8 µM)											
CCn1cc(C(=O)O)c(=O)c2cnc(N3CCNCC3)nc21 [PIPEMIDIC ACID]	3.13 µg/mL (≈ 10.3 µM)	25 µg/mL (≈ 82.4 µM)	0.78 µg/mL (≈ 2.57 µM)	0.78 µg/mL (≈ 2.57 µM)	3.13 µg/mL (≈ 10.3 µM)	25 µg/mL (≈ 82.4 µM)	0.78 µg/mL (≈ 2.57 µM)	12.5 µg/mL (≈ 41.2 µM)	0.78 µg/mL (≈ 2.57 µM)	12.5 µg/mL (≈ 41.2 µM)	3.13 µg/mL (≈ 10.3 µM)	3.13 µg/mL (≈ 10.3 µM)	6.25 µg/mL (≈ 20.6 µM)	25 µg/mL (≈ 82.4 µM)	
CCn1cc(C(=O)O)c(=O)c2cc(F)c(N3CCNCC3)nc21 [ENOXACIN]	0.2 µg/mL (≈ 0.624 µM)	3.13 µg/mL (≈ 9.77 µM)	0.1 µg/mL (≈ 0.312 µM)	0.1 µg/mL (≈ 0.312 µM)											
O=C(N[C@H](CO)[C@H](O)c1ccc([N+](=O)[O-])cc1)C(Cl)Cl [CHLORAMPHENICOL]	12.5 µg/mL (≈ 38.7 µM)	100 µg/mL (≈ 309 µM)	3.13 µg/mL (≈ 9.69 µM)	3.13 µg/mL (≈ 9.69 µM)	> 400 µg/mL	> 400 µg/mL	> 400 µg/mL	> 400 µg/mL	> 400 µg/mL	> 400 µg/mL	12.5 µg/mL (≈ 38.7 µM)	> 400 µg/mL	25 µg/mL (≈ 77.4 µM)	> 400 µg/mL	
GENTAMICIN															MIC (Serratia marcescens [19]): 1.56 µg/mL; MIC (Serratia marcescens [20]): 1.56 µg/mL; MIC (Serratia marcescens [21]): 1.56 µg/mL; MIC (Serratia marcescens [22]): 1.56 µg/mL
NC[C@H]1O[C@H](O[C@H]2[C@H](O)[C@@H](O[C@H]3O[C@H](CO)[C@@H](O)[C@H](N)[C@H]3O)[C@H](N)C[C@@H]2N)[C@H](O)[C@@H](O)[C@@H]1O [KANAMYCIN]	1.56 µg/mL (≈ 3.22 µM)	1.56 µg/mL (≈ 3.22 µM)	> 400 µg/mL	> 400 µg/mL	1.56 µg/mL (≈ 3.22 µM)	1.56 µg/mL (≈ 3.22 µM)					1.56 µg/mL (≈ 3.22 µM)	1.56 µg/mL (≈ 3.22 µM)	1.56 µg/mL (≈ 3.22 µM)	1.56 µg/mL (≈ 3.22 µM)	
CN(C)[C@@H]1C(O)=C(C(N)=O)C(=O)[C@@]2(O)C(O)=C3C(=O)c4c(O)cccc4[C@@](C)(O)[C@H]3C[C@@H]12 [TETRACYCLINE]	50 µg/mL (≈ 113 µM)	100 µg/mL (≈ 225 µM)	3.13 µg/mL (≈ 7.04 µM)	3.13 µg/mL (≈ 7.04 µM)	50 µg/mL (≈ 113 µM)	100 µg/mL (≈ 225 µM)	3.13 µg/mL (≈ 7.04 µM)	50 µg/mL (≈ 113 µM)	3.13 µg/mL (≈ 7.04 µM)	50 µg/mL (≈ 113 µM)	50 µg/mL (≈ 113 µM)	50 µg/mL (≈ 113 µM)	100 µg/mL (≈ 225 µM)	100 µg/mL (≈ 225 µM)	
CC1(C)S[C@@H]2[C@H](NC(=O)[C@H](N)c3ccccc3)C(=O)N2[C@H]1C(=O)O [AMPICILLIN]	100 µg/mL (≈ 286 µM)	6.25 µg/mL (≈ 17.9 µM)	6.25 µg/mL (≈ 17.9 µM)	6.25 µg/mL (≈ 17.9 µM)											
CCCCCCCCCCCC[n+]1ccccc1.[I-]	100 µg/mL	100 µg/mL	12.5 µg/mL	6.25 µg/mL											
CC1(C)S[C@@H]2[C@H](NC(=O)C(C(=O)O)c3ccccc3)C(=O)N2[C@H]1C(=O)O (stereo not given in full) [CARBENICILLIN]	6.25 µg/mL (≈ 16.5 µM)	3.13 µg/mL (≈ 8.27 µM)	3.13 µg/mL (≈ 8.27 µM)	3.13 µg/mL (≈ 8.27 µM)	6.25 µg/mL (≈ 16.5 µM)	3.13 µg/mL (≈ 8.27 µM)	3.13 µg/mL (≈ 8.27 µM)	3.13 µg/mL (≈ 8.27 µM)	3.13 µg/mL (≈ 8.27 µM)	3.13 µg/mL (≈ 8.27 µM)	6.25 µg/mL (≈ 16.5 µM)	6.25 µg/mL (≈ 16.5 µM)	3.13 µg/mL (≈ 8.27 µM)	3.13 µg/mL (≈ 8.27 µM)	
CN[C@@H]1[C@H](O[C@H]2[C@H](O[C@H]3[C@H](O)[C@@H](O)[C@H](N=C(N)N)[C@@H](O)[C@@H]3N=C(N)N)O[C@@H](C)[C@]2(O)C=O)O[C@@H](CO)[C@H](O)[C@H]1O [STREPTOMYCIN]	3.13 µg/mL (≈ 5.38 µM)	3.13 µg/mL (≈ 5.38 µM)	1.56 µg/mL (≈ 2.68 µM)	1.56 µg/mL (≈ 2.68 µM)											
CC1COc2c(N3CCN(C)CC3)c(F)cc3c(=O)c(C(=O)O)cn1c23 (stereo not given) [OFLOXACIN]	0.1 µg/mL (≈ 0.277 µM)	3.13 µg/mL (≈ 8.66 µM)	0.05 µg/mL (≈ 0.138 µM)	0.05 µg/mL (≈ 0.138 µM)											
N=C(NCCCCCCNC(=N)NC(=N)Nc1ccc(Cl)cc1)NC(=N)Nc1ccc(Cl)cc1.O=C(O)[C@H](O)[C@@H](O)[C@H](O)[C@H](O)CO	25 µg/mL	100 µg/mL	3.13 µg/mL	3.13 µg/mL											

Reference: ChEMBL document CHEMBL1649274, “Mutational upregulation of a resistance-nodulation-cell division-type multidrug efflux pump, SdeAB, upon exposure to a biocide, cetylpyridinium chloride, and antibiotic resistance in Serratia marcescens” (Antimicrob Agents Chemother, 2009)
